# Results from US8436006B2, “2-amino-quinazoline derivatives useful as inhibitors of β-secretase (BACE)” (Jansssen Pharmaceutica N.V., priority 2004, dated 2013).
# Target: T1, β-secretase (BACE) (Homo sapiens, UniProt P56817)
# T1 construct: purchased Panvera
# Experiment: BACE FS1% Inhibition Assay (Example 160)
# Type: biochemical
# Experimental: The following reagents were used in this assay: sodium acetate, PEB8000 (Sigma), DMSO, HEPES, FS1 substrate [[…]], β-secretase (BACE) (Panvera), and 96-well plate (HE microplate, Molecular Devices). […] The FS1-substrate stock solution was prepared in DMSO as a 10 mg/mL solution. The FS1-substrate working solution was prepared by diluting the 10 mg/mL stock solution with substrate assay buffer to a final concentration of 300 μg/mL. The β-secretase (BACE) working solution was prepared by diluting a 0.83 mg/mL BACE stock solution with enzyme assay buffer to a final concentration of 4 μg/mL. Test compounds were dissolved in DMSO to 10 mM. […] The screening procedure for this assay was as follows: 15 μL of BACE working solution was pipetted into each well of a 96-well plate. To each well was the pipetted 2 μL of test compound at the selected concentration. Test compound and BACE were then mixed with a pipettor and incubated for 20 min at room temperature. To each well was then added 10 μL of the FS1 substrate working solution. The plates were then incubated for 1 hour at room temperature. […] The procedure for the blank was as follows. 15 μL of assay buffer was pipetted into each well to be used as a blank control. To each well was then added 2 μL of vehicle and 10 μL of FS1-substrate working solution. The plates were then incubated for 1 hour at room temperature. […] The procedure for the positive control was as follows: 15 μL of BACE working solution was pipetted into each well to be used as a positive control. To each well was then pipetted 2 μL of vehicle. Vehicle and BACE were then mixed with a pipettor and incubated for 20 min at room temperature. To each well was then added 10 μL of the FS1 substrate working solution. The plates were then incubated for 1 hour at room temperature. […] For test compounds, % inhibition was determined at each concentration as follows: [formula]
# T1 sequence (P56817 46-501): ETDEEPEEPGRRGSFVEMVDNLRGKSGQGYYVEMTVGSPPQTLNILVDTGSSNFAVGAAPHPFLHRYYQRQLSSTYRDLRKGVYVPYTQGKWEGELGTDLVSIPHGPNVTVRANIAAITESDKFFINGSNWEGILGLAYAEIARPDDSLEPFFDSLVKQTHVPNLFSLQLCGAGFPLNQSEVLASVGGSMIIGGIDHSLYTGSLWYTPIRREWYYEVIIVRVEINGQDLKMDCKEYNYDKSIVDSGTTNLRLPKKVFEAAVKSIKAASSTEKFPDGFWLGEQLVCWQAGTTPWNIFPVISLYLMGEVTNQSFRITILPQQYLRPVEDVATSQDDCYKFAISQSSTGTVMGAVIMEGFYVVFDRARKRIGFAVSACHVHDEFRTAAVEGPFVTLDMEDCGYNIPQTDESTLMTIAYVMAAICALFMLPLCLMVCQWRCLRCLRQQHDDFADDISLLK
smiles,measurement,setting,value
CN(CCC#N)C(=O)CC[C@@H](C1CCCCC1)N1Cc2cc(-c3ccccc3F)ccc2N=C1N [Compound 725],% Inhibition (FS),0.3 μM test compound,33%
same,% Inhibition (FS),1 μM test compound,74%
same,% Inhibition (FS),3 μM test compound,126%
CN(CCc1ccccc1)C(=O)CC[C@@H](C1CCCCC1)N1Cc2cc(-c3ccccc3F)ccc2N=C1N [Compound 727],% Inhibition (FS),0.3 μM test compound,46%
same,% Inhibition (FS),1 μM test compound,80%
CCOC(=O)C1CCC(N(C)C(=O)CCC(C2CCCCC2)N2Cc3cc(Oc4ccccc4)ccc3N=C2N)CC1 (stereo not shown) [Compound 737],% Inhibition (FS),"0.3 μM test compound, 0.3 µM",22%
same,% Inhibition (FS),"1 μM test compound, 1 µM",34%
same,% Inhibition (FS),"3 μM test compound, 3 µM",97%
CN(C(=O)CCC(C)(C)N1Cc2cc(Oc3ccccc3)ccc2N=C1N)C1CCCCC1 [Compound 738],% Inhibition (FS),0.3 μM test compound,14%
same,% Inhibition (FS),1 μM test compound,28%
same,% Inhibition (FS),3 μM test compound,61%
CN(C(=O)CCC(C1CCCCC1)N1Cc2cc(Oc3ccccc3)ccc2N=C1N)C1(C(=O)O)CCCCC1 (stereo not shown) [Compound 741],% Inhibition (FS),0.3 μM test compound,−48%
same,% Inhibition (FS),1 μM test compound,−38%
same,% Inhibition (FS),3 μM test compound,−25%
CN(C(=O)CCC(C1CCOCC1)N1Cc2cc(Oc3ccccc3)ccc2N=C1N)C1CCC(C(=O)O)CC1 (stereo not shown) [Compound 743],% Inhibition (FS),3 μM test compound,130%
CN(C(=O)CC[C@@H](C1CCOCC1)N1Cc2cc(Oc3ccccc3)ccc2N=C1N)[C@H]1CC[C@H](C(=O)O)CC1 [Compound 746],% Inhibition (FS),0.3 μM test compound,85%
same,% Inhibition (FS),1 μM test compound,104%
same,% Inhibition (FS),3 μM test compound,112%
CN(C(=O)CC[C@@H](C1CCCCC1)N1Cc2ccc(Oc3ccccc3)cc2N=C1N)C1CCCCC1 [Compound 754],% Inhibition (FS),0.3 μM test compound,8%
same,% Inhibition (FS),1 μM test compound,35%
same,% Inhibition (FS),3 μM test compound,89%
CN(C(=O)CCC(C1CCCCC1)N1Cc2cc(Oc3ccccc3)ccc2N=C1N)C1CCC(C(=O)OCc2ccccc2)CC1 (stereo not shown) [Compound 760],% Inhibition (FS),0.3 μM test compound,<30%
same,% Inhibition (FS),1 μM test compound,44%
same,% Inhibition (FS),3 μM test compound,89%
CCOC(=O)C1CCC(N(C)C(=O)CCC(C2CCCCC2)N2Cc3cc(Oc4ccccc4)ccc3N=C2N)CC1 (stereo not shown) [Compound 763],% Inhibition (FS),"0.3 μM test compound, 0.3 µM",<30%
same,% Inhibition (FS),"1 μM test compound, 1 µM",84%
CNC(=O)C1CCC(N(C)C(=O)CCC(C2CCCCC2)N2Cc3cc(Oc4ccccc4)ccc3N=C2N)CC1 (stereo not shown) [Compound 765],% Inhibition (FS),0.3 μM test compound,<30%
same,% Inhibition (FS),1 μM test compound,56%
same,% Inhibition (FS),3 μM test compound,97%
CN(C(=O)CCC(C1CCCCC1)N1Cc2cc(Oc3ccccc3)ccc2N=C1N)c1ccc(C(=O)O)cc1 (stereo not shown) [Compound 766],% Inhibition (FS),0.3 μM test compound,<30%
same,% Inhibition (FS),1 μM test compound,<30%
same,% Inhibition (FS),3 μM test compound,<30%
CN(CC(=O)O)C(=O)CCC(C1CCCCC1)N1Cc2cc(Oc3ccccc3)ccc2N=C1N (stereo not shown) [Compound 767],% Inhibition (FS),0.3 μM test compound,<30%
same,% Inhibition (FS),1 μM test compound,71%
CN(C(=O)CCC(C1CCCCC1)N1Cc2cc(Oc3ccccc3)ccc2N=C1N)C1CCC(C#N)CC1 (stereo not shown) [Compound 769],% Inhibition (FS),0.3 μM test compound,<30%
same,% Inhibition (FS),1 μM test compound,61%
CN(C(=O)CCC(C1CCCCC1)N1Cc2cc(Oc3ccccc3)ccc2N=C1N)C1CCC(c2nn[nH]n2)CC1 (stereo not shown) [Compound 770],% Inhibition (FS),0.3 μM test compound,<30%
same,% Inhibition (FS),1 μM test compound,<30%
same,% Inhibition (FS),3 μM test compound,<30%
COC(=O)Cc1cccc(CN(C)C(=O)CCC(C2CCCCC2)N2Cc3cc(Oc4ccccc4)ccc3N=C2N)c1 (stereo not shown) [Compound 775],% Inhibition (FS),0.3 μM test compound,<30%
same,% Inhibition (FS),1 μM test compound,62%
CN(Cc1cccc(CC(=O)O)c1)C(=O)CCC(C1CCCCC1)N1Cc2cc(Oc3ccccc3)ccc2N=C1N (stereo not shown) [Compound 778],% Inhibition (FS),0.3 μM test compound,<30%
same,% Inhibition (FS),1 μM test compound,77%
COC(=O)C(COCc1ccccc1)N(C)C(=O)CCC(C1CCCCC1)N1Cc2cc(Oc3ccccc3)ccc2N=C1N (stereo not shown) [Compound 780],% Inhibition (FS),0.3 μM test compound,69%
same,% Inhibition (FS),1 μM test compound,97%
COC(=O)[C@H](COCc1ccccc1)N(C)C(=O)CC[C@@H](C1CCOCC1)N1Cc2cc(Oc3ccccc3)ccc2N=C1N [Compound 786],% Inhibition (FS),0.3 μM test compound,97%
